Test results published in ChEMBL document CHEMBL1240328, “Selective compounds define Hsp90 as a major inhibitor of apoptosis in small-cell lung cancer” (Nat Chem Biol, 2007).
The source made the active and inactive calls. The rule behind the calls is not given here.

Columns and labels:
[1] = biological target: RAC-alpha serine/threonine-protein kinase (Homo sapiens) (UniProt P31749); details: NCI-H526, 50 uM
Description: Inhibition of Akt-mediated antiapoptotic activity in human NCI-H526 cells assessed as reduction in BAD phosphorylation at 50 uM after 24 hrs by Western blot analysis

[2] = biological target: Heat shock protein HSP 90-beta (Homo sapiens) (UniProt P08238); assay: Binding affinity to HSP90 in human SKBR3 cells after 24 hrs by fluorescence polarization assay; details: SK-BR-3
[3] = biological target: Heat shock protein HSP 90-beta (Homo sapiens) (UniProt P08238); assay: Inhibition of HSP90-mediated proliferation of human SKBR3cells after 72 hrs by sulforhodamine B assay

Sequence of Heat shock protein HSP 90-beta (Homo sapiens) (P08238 whole entry): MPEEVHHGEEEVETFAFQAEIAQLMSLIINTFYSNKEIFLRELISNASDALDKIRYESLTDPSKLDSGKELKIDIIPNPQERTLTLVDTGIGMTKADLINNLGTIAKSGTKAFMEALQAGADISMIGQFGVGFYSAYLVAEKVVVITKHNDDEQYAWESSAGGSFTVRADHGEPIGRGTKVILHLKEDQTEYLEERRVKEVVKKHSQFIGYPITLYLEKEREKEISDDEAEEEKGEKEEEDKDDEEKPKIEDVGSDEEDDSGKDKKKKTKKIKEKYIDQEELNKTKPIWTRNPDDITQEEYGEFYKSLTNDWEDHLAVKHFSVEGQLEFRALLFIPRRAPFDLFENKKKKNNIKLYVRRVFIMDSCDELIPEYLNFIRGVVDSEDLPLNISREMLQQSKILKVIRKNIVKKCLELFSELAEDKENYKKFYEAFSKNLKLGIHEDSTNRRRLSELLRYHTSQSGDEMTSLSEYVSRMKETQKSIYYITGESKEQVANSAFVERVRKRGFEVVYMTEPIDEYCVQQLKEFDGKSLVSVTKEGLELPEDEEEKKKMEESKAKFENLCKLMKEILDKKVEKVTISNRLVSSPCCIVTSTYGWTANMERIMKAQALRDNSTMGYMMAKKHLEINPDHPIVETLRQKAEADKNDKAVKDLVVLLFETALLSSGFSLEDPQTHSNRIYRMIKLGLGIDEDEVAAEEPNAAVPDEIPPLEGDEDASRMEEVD
Sequence of RAC-alpha serine/threonine-protein kinase (Homo sapiens) (P31749 whole entry): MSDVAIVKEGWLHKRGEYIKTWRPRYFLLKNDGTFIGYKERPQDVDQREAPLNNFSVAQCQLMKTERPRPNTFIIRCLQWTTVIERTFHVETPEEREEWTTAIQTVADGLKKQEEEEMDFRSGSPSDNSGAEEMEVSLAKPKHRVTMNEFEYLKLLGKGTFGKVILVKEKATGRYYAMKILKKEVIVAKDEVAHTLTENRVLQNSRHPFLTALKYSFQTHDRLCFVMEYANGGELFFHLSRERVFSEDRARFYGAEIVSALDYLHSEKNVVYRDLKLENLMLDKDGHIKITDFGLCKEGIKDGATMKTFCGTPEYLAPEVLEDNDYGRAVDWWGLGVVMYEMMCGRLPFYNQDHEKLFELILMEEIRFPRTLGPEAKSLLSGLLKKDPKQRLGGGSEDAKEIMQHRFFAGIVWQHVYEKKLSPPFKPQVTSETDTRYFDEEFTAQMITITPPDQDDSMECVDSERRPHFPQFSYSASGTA

Activity [2] | inhibition [3] | SMILES | inhibition [1]
– | – | O=c1[nH]c2ccccc2n1C1CCN(Cc2ccc(-c3nc4cc5[nH]cnc5cc4nc3-c3ccccc3)cc2)CC1 | Active
Active | Active | CC(C)NCCCn1c(Cc2cc3c(cc2I)OCO3)nc2c(N)nc(F)nc21 | –
